Assay results taken from patent publication US7994307B2, “RNAi modulation of the BCR-ABL fusion gene and uses thereof” (Alnylam Pharmaceuticals, Inc., priority 2004, dated 2011).
“Also recorded” adds a separate entry of the source.

Experiments:
p210Bcr-Abl (e14a2) = experiment: Western blot of Bcr-Abl protein in 32Dp210/e14a2 cells after siRNA electroporation; assay type: cell-based, murine; conditions: for Bcr-Abl protein levels: 32Dp210/e14a2 cells
Experimental: Protein assay: Western blot analysis was performed ˜24 h following the last siRNA -treatment or ˜96 hours following transfection with the pSUPER siRNA-expression vector as described (Goetz A W, et al., Cancer Res. 2001, 61:7635)
(§1) siRNA-transfection: siRNAs were transfected into the murine cell lines 32Dp210Bcr-Abl-e14a2, -e13a2, 32Dp190Bcr-Abl-e1a2 and the human leukemic cell line MEG-01 using electroporation. Cell density was adjusted to 2.5-5×10^6/ml in RPMI/10% FCS. 800 μl of this cell suspension were mixed with siRNA in a 4 mm electroporation cuvette. Cells were electroporated by means of an EasyJect electroporator (peqlab, Erlangen, Germany) using a single-pulse protocol (250 V, 1800 μF, 8.). This treatment was repeated in intervals of 24 hours as indicated.
(§2) In 32Dp210Bcr-Abl-e14a2, -e13a2 and 32Dp190Bcr-Abl-e1a2 inhibition of Bcr-Abl can be compensated by addition of exogenous growth factor to the medium. Therefor, recombinant murine IL-3, (1 ng/ml) was added to the growth medium during siRNA treatment of these cell lines. Following the last siRNA treatment cells were washed and factor deprived before starting the different examination procedures (Western blot/MTT).
We used three murine hematopoetic 32D cell lines expressing either p210Bcr-Abl (e14a2), p210Bcr-Abl (e13a2) or p190Bcr-Abl (e1a2) to study the effectiveness of siRNAs to silence each of these human Bcr-Abl fusion breakpoint variants. In addition, experiments were performed in human Ph+leukemia cells (K562, MEG-01). All siRNAs used were directed to breakpoints of the Bcr and Abl sequence of the respective Bcr-Abl mRNA. RNAi-efficiency was assayed via analysis of Bcr-Abl protein levels and by monitoring the biological effect using MTT viability assay.

32Dp210/e14a2 cells = experiment: MTT viability assay in 32Dp210/e14a2 cells after siRNA electroporation; assay type: cell-based, murine
Experimental: (§3) Survival Assay: Following the last siRNA treatment cells were seeded in 96 well plates and cultivated for another ˜48 hours. Cell survival was then measured by MTT assay as described (Van der Kuip H, et al., Blood. 2001, 98:1532)
as §1, §2

K562 cells = experiment: Viability/growth of K562 cells after lipofection with siRNA; assay type: cell-based, human
Experimental: as §3
For the transfection of siRNA molecules into the human K562 cells we used Lipofectamin™ 2000 (Invitrogen, Karlsruhe). 1.5 Mio. cells were plated in 1.5 ml RPMI/10% FCS w/o antibiotics into a 6 well plate. For each well 500 μl transfection solution was prepared, containing 8.4 μg siRNA and 21 μl Lipofectamin in OPTI-MEM I reduced serum medium (Gibco, Karlsruhe). The cells were incubated 5 hours with the transfection solution, then the medium was changed to RPMI/10% FCS complemented with Penicillin/Streptomycin. When treated several times, cells were counted ˜24 h following treatment, diluted to 1 Mio/ml and seeded again in a 6 well plate (1.5 ml cell suspension per well). Transfection was then repeated exactly as the day before.

Bcr-Abl (e14a2) = experiment: Western blot of Bcr-Abl protein in primary CD34 positive cells of CML patients (e14a2); assay type: cell-based, human; conditions: two electroporations, compared to BAF8 or BAF16
Experimental: FIG. 4: CD34 positive cells isolated from 3 newly diagnosed and untreated Philadelphia chromosome-positive CML patients in chronic phase and positive for bcr-abl-e14a2 by Ficoll-Hypaque density gradient centrifugation and affinity column purification were treated with siRNAs BAF7 (e14a2 specific, Patient 1), BAF8 (mismatch control, Patient 1), BAF12 (e14a2 specific, Patient 2+3), and BAF16 (e13a2 specific, Patient 2+3). Cells were diluted to a density of 2.5×10^6 in 800 μl growth medium, mixed with 12.8 μl of a 50 μM solution of the respective siRNA in a 4-mm electroporation cuvette, and electroporated using a single pulse protocol (250V, 1800 μF). This treatment was repeated after 24 hours, the cells were washed, incubated for another 24 hours, and harvested for western blot analysis. […] Additionally, BAF12 treatment compromised Bcr-Abl activity.
CD34 positive cells were isolated from 3 newly diagnosed and untreated Philadelphia chromosome-positive CML patients in chronic phase. Informed consent was obtained by the patients prior to collection of cells. Mononuclear cells were harvested by Ficoll-Hypaque density gradient centrifugation (Seromed, Berlin, Germany). CD34 positive cells were isolated using a stem cell isolation kit and a MACS column (Miltenyi Biotech, Bergisch Gladbach, Germany) according to manufacturer's instructions. […]

M07p210/e14a2 cells = experiment: Induction of apoptosis by imatinib mesylate in M07p210/e14a2 cells; assay type: cell-based, human; conditions: BAF7-treated

p210Bcr-Abl (e14a2), sequence (P11274+P00519 fused): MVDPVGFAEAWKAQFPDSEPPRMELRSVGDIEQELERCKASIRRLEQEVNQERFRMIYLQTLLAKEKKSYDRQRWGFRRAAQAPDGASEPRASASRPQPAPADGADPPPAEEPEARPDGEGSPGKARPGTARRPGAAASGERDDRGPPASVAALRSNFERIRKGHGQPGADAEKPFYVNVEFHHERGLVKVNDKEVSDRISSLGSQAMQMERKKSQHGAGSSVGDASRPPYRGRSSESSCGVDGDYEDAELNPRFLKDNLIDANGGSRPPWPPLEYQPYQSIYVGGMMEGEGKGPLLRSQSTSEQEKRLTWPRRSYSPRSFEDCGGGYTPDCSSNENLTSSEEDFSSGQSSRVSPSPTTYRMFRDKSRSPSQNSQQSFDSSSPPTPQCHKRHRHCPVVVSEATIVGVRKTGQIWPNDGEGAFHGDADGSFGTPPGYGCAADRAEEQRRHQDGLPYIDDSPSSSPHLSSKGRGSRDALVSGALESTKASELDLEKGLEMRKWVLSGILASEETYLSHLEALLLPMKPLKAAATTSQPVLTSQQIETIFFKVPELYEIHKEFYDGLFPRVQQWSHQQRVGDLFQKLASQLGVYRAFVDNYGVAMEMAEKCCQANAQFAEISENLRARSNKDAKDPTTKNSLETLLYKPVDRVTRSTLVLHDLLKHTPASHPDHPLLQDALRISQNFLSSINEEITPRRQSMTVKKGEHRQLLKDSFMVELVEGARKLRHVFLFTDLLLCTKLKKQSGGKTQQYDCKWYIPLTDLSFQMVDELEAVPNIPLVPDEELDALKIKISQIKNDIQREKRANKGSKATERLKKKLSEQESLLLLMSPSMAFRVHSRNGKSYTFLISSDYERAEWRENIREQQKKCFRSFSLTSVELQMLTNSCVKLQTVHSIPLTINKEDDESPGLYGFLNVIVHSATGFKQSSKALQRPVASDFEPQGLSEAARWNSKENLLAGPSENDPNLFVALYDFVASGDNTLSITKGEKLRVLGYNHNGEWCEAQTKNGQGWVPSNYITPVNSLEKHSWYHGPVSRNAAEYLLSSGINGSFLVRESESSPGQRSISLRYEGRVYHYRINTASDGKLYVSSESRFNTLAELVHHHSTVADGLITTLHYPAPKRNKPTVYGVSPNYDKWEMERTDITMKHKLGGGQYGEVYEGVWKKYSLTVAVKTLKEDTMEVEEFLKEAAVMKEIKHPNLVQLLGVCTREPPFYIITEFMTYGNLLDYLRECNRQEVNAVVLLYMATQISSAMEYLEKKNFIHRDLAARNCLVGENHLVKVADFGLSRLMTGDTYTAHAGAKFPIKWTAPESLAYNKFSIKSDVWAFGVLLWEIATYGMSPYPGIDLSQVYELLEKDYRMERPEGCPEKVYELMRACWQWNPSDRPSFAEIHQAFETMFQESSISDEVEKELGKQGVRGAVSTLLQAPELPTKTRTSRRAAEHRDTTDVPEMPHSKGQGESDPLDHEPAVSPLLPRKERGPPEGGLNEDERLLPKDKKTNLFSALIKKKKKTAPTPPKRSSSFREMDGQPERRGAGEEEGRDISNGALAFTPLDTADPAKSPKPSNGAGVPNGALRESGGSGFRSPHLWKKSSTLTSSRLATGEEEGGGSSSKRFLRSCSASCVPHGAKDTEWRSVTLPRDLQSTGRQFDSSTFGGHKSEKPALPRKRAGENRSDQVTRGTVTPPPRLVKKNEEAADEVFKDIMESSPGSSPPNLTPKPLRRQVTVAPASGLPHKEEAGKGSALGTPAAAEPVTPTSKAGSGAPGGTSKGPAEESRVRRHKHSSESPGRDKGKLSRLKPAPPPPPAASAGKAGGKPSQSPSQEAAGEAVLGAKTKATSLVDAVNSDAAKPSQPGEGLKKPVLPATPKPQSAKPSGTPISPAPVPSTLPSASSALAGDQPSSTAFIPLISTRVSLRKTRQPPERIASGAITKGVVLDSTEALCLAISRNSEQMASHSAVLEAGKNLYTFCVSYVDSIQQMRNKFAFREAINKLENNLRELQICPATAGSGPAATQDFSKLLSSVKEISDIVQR
Bcr-Abl (e14a2), sequence (P11274+P00519 fused): as above

Substance: BAF7: siRNA duplex, sense SEQ ID No. 1, antisense SEQ ID No. 23, specific for Bcr-Abl-e14a2 (sense CAGAGUUCAAAAGCCCUUCAG; antisense CUGAAGGGCUUUUGAACUCUGCU; listed as RNA, chemistry not given here)
- Bcr-Abl protein levels (p210Bcr-Abl (e14a2); four consecutive treatments at intervals of 24 h): reduced the amount of Bcr-Abl protein to the detection limit; also recorded: almost complete disappearance of Bcr-Abl protein
- Bcr-Abl protein levels (p210Bcr-Abl (e14a2); single siRNA treatment, Western blot): notable reduction; also recorded: significant reduction
- recovery of Bcr-Abl protein levels (p210Bcr-Abl (e14a2); 32Dp210Bcr-Abl (e14a2) cells, after one single treatment): quickly recovered to pre-treatment levels
- viability (32Dp210/e14a2 cells; four treatments): virtual loss of viability; also recorded: virtually complete loss of viability
- viability relative to electroporation control cells (EPC, 100%) (32Dp210/e14a2 cells; single treatment, MTT): approximately 59%
- viability relative to EPC (32Dp210/e14a2 cells; treated four times, MTT): ≤ 2.5%
- growth (K562 cells; K562, 48 hours following one single treatment, lipofectamin 2000): only a minimal growth reduction
- viability (K562 cells; K562, 48 hours following the third lipofection at intervals of 24 hours): 45%
- Bcr-Abl protein levels (Bcr-Abl (e14a2)): significant reduction
- induction of apoptosis by 0.05 μM imatinib mesylate in siRNA-treated cells (M07p210/e14a2 cells): significant induction of apoptosis
